Assay results: patent publication US20080167375A1, “TREATMENT OF CUTANEOUS NEUROGENIC INFLAMMATION” (Astion Pharma A/S, priority 2006, published 2008)
Where two headings read alike, the source gives them in different places.

Key:
[1] = system: capsaicin-induced neurogenic inflammation (ear oedema); experiment: Capsaicin-induced ear oedema (neurogenic inflammation) model in mice; type: in vivo, NMRI mice; conditions: for % relative ear oedema (2. app): co-administered with capsaicin 250 μg/ear, 15 min after second capsaicin application; for % inhibition of ear oedema: after second capsaicin application, vs vehicle
Source text: Effect on capsaicin-induced neurogenic inflammation in mice and binding to the TRP vanillioid receptor.
The mechanism of cutaneous neurogenic inflammation is connected with the release of neuropeptides from sensory nerve endings. The neuropeptide substance P is believed to play a major role in inducing an inflammatory response by affecting different inflammatory cells.

vanilloid receptors = target: T1, vanilloid receptors (Rattus norvegicus, UniProt O35433); experiment: In vitro radioligand binding assay for vanilloid receptors (MDS Pharma Services); conditions: rat vas deferens, field stimulated
T1 construct: The tissue used in this assay was rat vas deferens, field stimulated; tissue MDS Pharma Services; host or cells: rat vas deferens
T1 sequence (O35433 whole entry): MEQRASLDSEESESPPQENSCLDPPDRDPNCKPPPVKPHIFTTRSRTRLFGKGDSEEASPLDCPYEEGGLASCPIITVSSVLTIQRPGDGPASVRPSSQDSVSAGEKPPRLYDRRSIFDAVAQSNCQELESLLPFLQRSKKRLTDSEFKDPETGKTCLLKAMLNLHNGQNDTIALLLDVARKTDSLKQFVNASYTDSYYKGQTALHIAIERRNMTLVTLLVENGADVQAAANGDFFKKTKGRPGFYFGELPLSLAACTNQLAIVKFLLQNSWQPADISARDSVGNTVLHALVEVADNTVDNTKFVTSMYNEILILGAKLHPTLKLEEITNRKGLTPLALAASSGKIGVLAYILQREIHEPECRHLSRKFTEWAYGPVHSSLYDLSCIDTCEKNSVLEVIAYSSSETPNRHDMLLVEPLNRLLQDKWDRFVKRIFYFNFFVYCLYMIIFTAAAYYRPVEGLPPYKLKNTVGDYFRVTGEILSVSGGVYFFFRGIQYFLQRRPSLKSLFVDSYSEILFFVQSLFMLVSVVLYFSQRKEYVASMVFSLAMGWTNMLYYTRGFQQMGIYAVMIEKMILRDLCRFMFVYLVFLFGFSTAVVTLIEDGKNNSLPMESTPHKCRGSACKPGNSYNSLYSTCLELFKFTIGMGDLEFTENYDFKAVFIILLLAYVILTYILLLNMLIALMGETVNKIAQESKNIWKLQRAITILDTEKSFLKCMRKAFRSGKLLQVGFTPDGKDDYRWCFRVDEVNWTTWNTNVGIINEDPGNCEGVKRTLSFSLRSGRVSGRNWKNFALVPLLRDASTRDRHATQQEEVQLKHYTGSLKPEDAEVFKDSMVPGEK
Source text: Literature reference to this assay is Wardle, K A et al. J PharmPharmacol. 48:285, 1996.

[2] = target: T2, Fatty acid amid hydrolase (FAAH) (Rattus norvegicus, UniProt P97612); experiment: FAAH in vitro enzyme assay (MDS Pharma Services); type: biochemical; conditions: rat brain source; substrate Anandamide+[3H]Anandamide
T2 construct: source is rat brain; tissue MDS Pharma Services; host or cells: rat brain
T2 sequence (P97612 1-579): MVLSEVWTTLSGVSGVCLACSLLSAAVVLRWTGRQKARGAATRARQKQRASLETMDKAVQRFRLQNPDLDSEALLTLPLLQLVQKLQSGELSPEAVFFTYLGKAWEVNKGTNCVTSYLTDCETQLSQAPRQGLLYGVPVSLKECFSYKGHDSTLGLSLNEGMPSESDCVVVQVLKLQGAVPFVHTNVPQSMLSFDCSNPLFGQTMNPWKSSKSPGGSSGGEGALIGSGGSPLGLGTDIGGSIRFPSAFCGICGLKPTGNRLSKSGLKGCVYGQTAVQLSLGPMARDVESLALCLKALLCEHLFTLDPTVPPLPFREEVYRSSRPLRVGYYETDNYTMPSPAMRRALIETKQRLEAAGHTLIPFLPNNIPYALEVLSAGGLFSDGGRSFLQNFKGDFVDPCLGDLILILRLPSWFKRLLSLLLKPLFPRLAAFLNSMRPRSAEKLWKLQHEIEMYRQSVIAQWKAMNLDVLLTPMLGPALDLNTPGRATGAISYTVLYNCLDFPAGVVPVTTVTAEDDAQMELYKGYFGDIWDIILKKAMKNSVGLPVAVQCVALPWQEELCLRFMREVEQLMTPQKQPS
Method: The assay is conducted using the following test conditions; source is rat brain, substrate is Anandamide+[3H]Anandamide, the reation is[3H]Anandamide→[3H]Ethanolamine+Arachidonic acid and the quantitation is performed on [3H]Ethanolamine using a test concentration usually of about 10 μM.

[3] = system: IL-1β release in LPS-activated human peripheral blood mononuclear cells (PBMC); experiment: LPS-induced IL-1β release from human PBMC; type: cell-based; set-up: IL-1β: unit not given here; conditions: for IL-1β: LPS-stimulated PBMC
Source text: (§1) The ability of GMCY to inhibit release of pro-inflammatory cytokines (TNF-α and IL-1) in LPS-activated human peripheral blood mononuclear cells (PBMC) has been investigated.

[4] = system: TNF-α release in LPS-activated human peripheral blood mononuclear cells (PBMC); experiment: LPS-induced TNF-α release from human PBMC; type: cell-based; conditions: for TNF-α: LPS-stimulated PBMC
Source text: as §1

[5] = system: IL-6 release in LPS-activated human peripheral blood mononuclear cells (PBMC); experiment: LPS-induced IL-6 release from human PBMC; type: cell-based; conditions: physiologically relevant concentrations
human PPARα = target: T3, human PPARα (Homo sapiens, UniProt Q07869); experiment: PPARα agonism, Gal4-luciferase transactivation assay in HEK 293-T; type: cell-based
T3 construct: host or cells: HEK 293-T
T3 sequence (Q07869 239-466 limits assumed): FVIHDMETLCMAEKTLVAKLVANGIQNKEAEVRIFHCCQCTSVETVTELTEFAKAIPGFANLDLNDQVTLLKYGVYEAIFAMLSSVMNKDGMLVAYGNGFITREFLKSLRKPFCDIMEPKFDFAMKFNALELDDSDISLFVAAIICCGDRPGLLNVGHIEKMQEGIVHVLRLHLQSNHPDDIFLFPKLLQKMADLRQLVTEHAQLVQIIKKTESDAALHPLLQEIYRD
Method: Effect of GMCY and glyceryl fatty acid esters of higher acid chain length on PPARα agonism.
Agonism of PPARα can be tested by commercially available assays such as by Indigo Biosciences). The test substance is dissolved in DMSO and serial dilutions in DMSO were prepared. A plasmid was formed by fusing a ligand-binding domain of human PPARα, to a DAN-binding domain of the yest transcription factor Gal4 under the control of the SV40 promoter. This plasmid also encoded the UAS-firefly luciferase reporter under the control of the Gal4 DNA response element. Cell-cultures and transactivation assays were HEK 293-T fibroblast (ATCC Manassas, Va.) which were cultured in high-glucose Dulbecco's Minimal Essential Medium (DMEM) supplemented with 10% fetal bovine serum (FBS, Sigma), 0.2 mg/ml streptomycin and 200 U/ml penicillin (Gibco Grand Island, N.Y.). Cells were transfected with plasmid DNA using Lipofectamine reagent (In Vitrogen, Carlsbad, Calif.) using the manufacturers recommended procedures. Sixteen hours after treatment, the cells were lysed with passive lysis buffer (Promega, Madison, Wis.) and a Tecan GeniousPro (Research Triangle Park, N.C.). The fold induction of normalised luciferase activity was calculated relative to DMSO, DMSO-treated cells.

[6] = target: T4, Protein tyrosine kinase enzyme Syk (Homo sapiens, UniProt P43405); experiment: Protein tyrosine kinase Syk inhibition (MDS Pharma, assay no 174200); type: biochemical
T4 construct: MDS Pharma assay no 174200

skin = experiment: Skin tolerability of dermatological compositions; conditions: higher doses
Source text: Therefore, in current interesting embodiments of the invention, the dermatological composition comprises for reasons of safety and convenience a maximal dose of GMCY or an analogue thereof in an amount of 5% of GMCY or an analogue thereof by weight of the dermatological composition, such as in a maximum doses of 4.5%, 4%, 3.5%, 3%, 2.5%, 2%, 1.5%, 1.25 1%, 0.8, 0.6 and 0.5% of GMCY or an analogue thereof by weight of the dermatological composition.

acute inflammation = conditions: Example 111 of WO 2004/000333; cited from earlier work
[7] = target: T2, Fatty acid amid hydrolase (FAAH); conditions: reference compound of the assay; cited from earlier work
[8] = physiologically relevant concentrations

With `CCCCCCCC(=O)OCC(O)CO` (racemic) [GMCY, 1-glyceryl monocaprylate] as the molecule, how does the “% relative ear oedema (2. app)” value ([1]; 100 μg/ear topical) read?
Its value is 15.8%.

What about the “% inhibition of ear oedema” value ([1]; 100 μg/ear) of the same molecule?
Its value is 32.6%.

And the “% relative ear oedema (2. app)” value ([1]; 450 μg/ear topical)?
Its value is 15.3%.

And the “% inhibition of ear oedema” value ([1]; 450 μg/ear)?
The value was 34.4%.

And the “% relative ear oedema (2. app)” value ([1]; 2000 μg/ear topical)?
The value was 15.0%.

And the “% inhibition of ear oedema” value ([1]; 2000 μg/ear)?
Its value is 36.0%.

What about the “reduction of inflammation in comparison to the vehicle control” value ([1]; after repeated application of capsaicin, treated groups overall) of the same molecule?
The value was “about 35%”.

What about the “binding to the vanilloid receptors” value (vanilloid receptors) of the same molecule?
Its value is “does not bind”.

What about the IC50 [2] of the same molecule?
The IC50 was 53 µM.

What about the IL-1β ([3]; 1 μM) of the same molecule?
Its IL-1β is 459.2.

And the IL-1β ([3]; 10 μM)?
Its IL-1β is 320.9.

What about the IL-1β ([3]; 100 μM) of the same molecule?
The IL-1β was 238.6.

And the IL-1β ([3]; 1000 μM)?
Its IL-1β is 124.5.

And the IL-1β ([3]; 10000 μM)?
The IL-1β was 8.2.

And the “inhibition of LPS induced release of IL-1β” value [3, 8]?
Its value is “dose dependently inhibit”.

And the TNF-α ([4]; 1 μM)?
Its TNF-α is 230.2.

And the TNF-α ([4]; 10 μM)?
Its TNF-α is 105.

And the TNF-α ([4]; 100 μM)?
Its TNF-α is 73.7.

What about the TNF-α ([4]; 1000 μM) of the same molecule?
Its TNF-α is 38.5.

And the TNF-α [4]?
Its TNF-α is 6.9.

What about the “inhibition of LPS induced release of TNF-α” value [4, 8] of the same molecule?
Its value is “dose dependently inhibit”.

And the “inhibition of LPS induced release of IL-6” value [5]?
Its value is “dose dependently inhibit”.

What about the PPARα agonism (human PPARα) of the same molecule?
The PPARα agonism was “did not act as an agonist”.

And the IC50 [6]?
Its IC50 is 61 µM.

What about the “skin burning / irritation” value (skin) of the same molecule?
Its value is “causes burning or weak irritation in higher doses”.

And the “effect on acute inflammation” value (acute inflammation)?
Its value is “any effect could not be proven statistically”.

With `C[C@@H]1C[C@H]2[C@@H]3CCC4=CC(=O)C=C[C@]4(C)[C@@]3(F)[C@@H](O)C[C@]2(C)[C@@]1(O)C(=O)CO` [Dexamethasone, reference compound] as the molecule, how does the TNF-α ([4]; Dexamethasone control, concentration not given) read?
The TNF-α was 87.

For `CCCCCCCCCC(=O)OCC(O)CO` (centres unmarked) [1-glyceryl monocaprate, reference compound], which “inhibitory effect on neurogenic inflammation (ear oedema vs vehicle control)” value ([1]; all treated groups (2000, 450, 100 μg/ear)) is on record?
Its value is “no inhibitory effect”.

For `CCCCCCCC/C=C\CCCCCCCC(=O)C(F)(F)F` [Oleyl Trifluromethyl Ketone], which IC50 [7] is on record?
Its IC50 is 0.029 µM.
